Results: patent US8084479B2, “Thiazole compounds and methods of use” (Amgen Inc., priority 2006, dated 2011)

What follows are compounds tested against PKBα (Homo sapiens, UniProt P31749) (assay: PKB kinase assay (P33-labeled ATP, peptide substrate, filter plate)). Conditions: PKBα enzyme (full length or kinase domain with pleckstrin domain deleted).
Assay type: biochemical
Source text: The kinase assay for evaluating PKB activity comprises active PKB enzymes, a PKB specific substrate, and P^33-labeled ATP. […] The phosphorylated substrate was captured by a phosphocellulose membrane filter plate (MLLIPORE) and measured by a Wallac Microbeta liquid scintillation counter (Perkin Elmer).

Chain of PKBα (P31749 118-480 limits assumed): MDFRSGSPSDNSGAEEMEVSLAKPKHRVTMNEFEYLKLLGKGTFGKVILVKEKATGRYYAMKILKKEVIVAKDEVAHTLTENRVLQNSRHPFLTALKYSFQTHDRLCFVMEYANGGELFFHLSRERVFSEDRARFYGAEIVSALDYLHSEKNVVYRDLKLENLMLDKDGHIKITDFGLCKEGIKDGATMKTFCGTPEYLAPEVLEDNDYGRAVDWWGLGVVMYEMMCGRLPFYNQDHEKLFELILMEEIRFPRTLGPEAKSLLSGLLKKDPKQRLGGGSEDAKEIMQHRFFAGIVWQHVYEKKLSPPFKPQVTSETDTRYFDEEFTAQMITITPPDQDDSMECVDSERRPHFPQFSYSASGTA

Row | Compound | IC50
1 | N[C@H](CNc1ncc(-c2cc3c(cc2F)NC(=O)C3)s1)Cc1ccc(C(F)(F)F)cc1 [Example 214, 5-(2-((S)-2-amino-3-(4-(trifluoromethyl)phenyl)propylamino)thiazol-5-yl)-6-fluoroindolin-2-one] | < 50 nM
2 | N[C@H](CNc1nc(-c2ccccc2F)c(-c2ccc3cnccc3c2)s1)Cc1ccc(C(F)(F)F)cc1 [Example 105, N—((S)-2-Amino-3-(4-(trifluoromethyl)phenyl)propyl)-4-(2-fluorophenyl)-5-(isoquinolin-6-yl)thiazol-2-amine] | < 50 nM
3 | C[C@@H](c1ccccc1)[C@H](N)CNc1ncc(-c2ccc3[nH]c(=O)n(C)c3c2)s1 [Example 89, 6-(2-((2S,3S)-2-Amino-3-phenylbutylamino)thiazol-5-yl)-1-methyl-1H-benzo[d]imidazol-2(3H)-one] | 1000 to 10000 nM
4 | Nc1n[nH]c2cc(-c3cnc(NC[C@@H](N)Cc4ccc(C(F)(F)F)cc4)s3)ccc12 [Example 52, 6-(2-((S)-2-amino-3-(4-(trifluoromethyl)phenyl)propylamino)thiazol-5-yl)-1H-indazol-3-amine] | 1000 to 10000 nM
5 | N[C@H](CNc1ncc(-c2nc3ccncc3s2)s1)Cc1ccc(Cl)cc1 [Example 99, N—((S)-2-Amino-3-(4-chlorophenyl)propyl)-5-(thiazolo[5,4-c]pyridin-2-yl)thiazol-2-amine] | < 50 nM
6 | Cn1nc(N)c2ccc(-c3cnc(NC[C@@H](N)Cc4ccc(C(F)(F)F)cc4)s3)cc21 [Example 53, 6-(2-((S)-2-amino-3-(4-(trifluoromethyl)phenyl)propylamino)thiazol-5-yl)-1-methyl-1H-indazol-3-amine] | 1000 to 10000 nM
7 | Nc1noc2ccc(-c3cnc(NC[C@@H](N)Cc4ccc(C(F)(F)F)cc4)s3)cc12 [Example 51, 5-(2-((S)-2-amino-3-(4-(trifluoromethyl)phenyl)propylamino)thiazol-5-yl)benzo[d]isoxazol-3-amine] | 50 to 1000 nM
8 | CC#Cc1nc(NC[C@@H](N)Cc2ccc(C(F)(F)F)cc2)sc1-c1ccc2[nH]nc(C)c2c1 [Example 153, N—((S)-2-amino-3-(4-(trifluoromethyl)phenyl)propyl)-5-(3-methyl-1H-indazol-5-yl)-4-(prop-1-ynyl)thiazol-2-amine] | < 50 nM
9 | N[C@H](CNc1nc(-c2ccco2)c(-c2ccc3cnccc3c2)s1)Cc1ccc(C(F)(F)F)cc1 [Example 8, N—((S)-2-amino-3-(4-(trifluoromethyl)phenyl)propyl)-4-(furan-2-yl)-5-(isoquinolin-6-yl)thiazol-2-amine] | 50 to 1000 nM
10 | N[C@H](CNc1nc(-c2ccccc2)c(-c2ccc3cnccc3c2)s1)Cc1ccc(C(F)(F)F)cc1 [Example 9, N—((S)-2-amino-3-(4-(trifluoromethyl)phenyl)propyl)-5-(isoquinolin-6-yl)-4-phenylthiazol-2-amine] | 50 to 1000 nM
11 | Cn1c(=O)[nH]c2ccc(-c3cnc(NC[C@@H](N)Cc4ccc(Cl)c(F)c4)s3)cc21 [Example 87, 6-(2-((S)-2-Amino-3-(4-chloro-3-fluorophenyl)propylamino)thiazol-5-yl)-1-methyl-1H-benzo[d]imidazol-2(3H)-one] | < 50 nM
12 | COCc1nc(NC[C@H](Cc2ccc(C(F)(F)F)cc2)NCCN2CCOCC2)sc1-c1nc2ccncc2s1 [Example 34, 4-(Methoxymethyl)-N—((S)-2-(2-morpholinoethylamino)-3-(4-(trifluoromethyl)phenyl)propyl)-5-(thiazolo[5,4-c]pyridin-2-yl)thiazol-2-amine] | 50 to 1000 nM
13 | COCc1nc(NC[C@@H](N)Cc2ccc(C(F)(F)F)cc2)sc1-c1ccc2[nH]c(=O)oc2c1 [Example 59, 6-(2-((S)-2-amino-3-(4-(trifluoromethyl)phenyl)propylamino)-4-(methoxymethyl)thiazol-5-yl)benzo[d]oxazol-2(3H)-one] | < 50 nM
14 | NC(CNc1ncc(-c2ccc3[nH]c(=O)oc3c2)s1)Cc1ccc(OC(F)(F)F)cc1 (stereo not shown) [Example 187, 6-(2-(-2-amino-3-(4-(trifluoromethoxy)phenyl)propylamino)thiazol-5-yl)benzo[d]oxazol-2(3H)-one] | 50 to 1000 nM
15 | Cn1c(=O)[nH]c2ccc(-c3sc(NC[C@@H](N)Cc4ccc(C(F)(F)F)cc4)nc3-c3ccccc3F)cc21 [Example 249, 6-(2-((S)-2-amino-3-(4-(trifluoromethyl)phenyl)propylamino)-4-(2-fluorophenyl)thiazol-5-yl)-1-methyl-1H-benzo[d]imidazol-2(3H)-one] | 1000 to 10000 nM
16 | COCc1nc(N(C[C@@H](N)Cc2cccc(Cl)c2)C(C)=O)sc1-c1nc2ccncc2s1 [Example 17, N—((S)-2-amino-3-(3-chlorophenyl)propyl)-N-(4-(methoxymethyl)-5-(thiazolo[5,4-c]pyridin-2-yl)thiazol-2-yl)acetamide] | 1000 to 10000 nM
17 | COCc1nc(NC[C@@H](N)Cc2ccc(C(F)(F)F)cc2)sc1-c1ccc2cnccc2c1 [Example 13, N—((S)-2-amino-3-(4-(trifluoromethyl)phenyl)propyl)-5-(isoquinolin-6-yl)-4-(methoxymethyl)thiazol-2-amine] | < 50 nM

Row | Compound | IC50
18 | c1ccc(CNc2ncc(-c3nc4ccncc4s3)s2)cc1 [Example 28, N-benzyl-5-(thiazolo[5,4-c]pyridin-2-yl)thiazol-2-amine] | 1000 to 10000 nM
19 | CS(=O)(=O)NCC#Cc1nc(NC[C@@H](N)Cc2ccc(C(F)(F)F)cc2)sc1-c1ccc2cnccc2c1 [Example 151, N-(3-(2-((S)-2-amino-3-(4-(trifluoromethyl)phenyl)propylamino)-5-(isoquinolin-6-yl)thiazol-4-yl)prop-2-ynyl)methanesulfonamide] | 1000 to 10000 nM
20 | C[C@@H](c1ccc(C(F)(F)F)cc1)[C@H](N)CNc1ncc(-c2ccc3c(c2F)CC(=O)N3)s1 [Example 225, 5-(2-((2S,3S)-2-amino-3-(4-(trifluoromethyl)phenyl)butylamino)thiazol-5-yl)-4-fluoroindolin-2-one] | < 50 nM
21 | N[C@H](CNc1nc(C(=O)NCCO)c(-c2ccc3cnccc3c2)s1)Cc1ccc(C(F)(F)F)cc1 [Example 119, 2-((S)-2-Amino-3-(4-(trifluoromethyl)phenyl)-propylamino)-N-(2-hydroxyethyl)-5-(isoquinolin-6-yl)thiazole-4-carboxamide] | 1000 to 10000 nM
22 | N[C@H](CNc1ncc(-c2cc3oc(=O)[nH]c3cc2F)s1)Cc1ccc(C(F)(F)F)nc1 [Example 219, 6-(2-((S)-2-amino-3-(6-(trifluoromethyl)pyridin-3-yl)propylamino)thiazol-5-yl)-5-fluorobenzo[d]oxazol-2(3H)-one] | 50 to 1000 nM
23 | N[C@H](CNc1ncc(-c2cc(F)c3c(c2)CC(=O)N3)s1)Cc1ccc(C(F)(F)F)nc1 [Example 221, 5-(2-((S)-2-amino-3-(6-(trifluoromethyl)pyridin-3-yl)propylamino)thiazol-5-yl)-7-fluoroindolin-2-one] | < 50 nM
24 | C/C=C/[C@@H](c1ccc(C(F)(F)F)cc1)[C@H](N)CNc1ncc(-c2ccc3c(c2)CC(=O)N3)s1 [Example 155, 5-(2-((2S,3S,E)-2-amino-3-(4-(trifluoromethyl)phenyl)hex-4-enylamino)thiazol-5-yl)indolin-2-one] | < 50 nM
25 | N[C@H](CNc1ncc(-c2cnc3c(c2)CC(=O)N3)s1)Cc1ccc(C(F)(F)F)cc1 [Example 226, 5-(2-((S)-2-amino-3-(4-(trifluoromethyl)phenyl)propylamino)thiazol-5-yl)-1H-pyrrolo[2,3-b]pyridin-2(3H)-one] | < 50 nM
26 | N[C@H](CNc1ncc(-c2ccc3c(c2)CC(=O)N3)s1)[C@@H](CO)c1ccc(C(F)(F)F)cc1 [Example 158, 5-(2-((2S,3S)-2-amino-4-hydroxy-3-(4-(trifluoromethyl)phenyl)butylamino)thiazol-5-yl)indolin-2-one] | < 50 nM
27 | N[C@H](CNc1ncc(-c2ccc3c(c2)CC(=O)N3)s1)Cc1ccc(Cl)s1 [Example 212, 5-(2-((S)-2-amino-3-(5-chlorothiophen-2-yl)propylamino)thiazol-5-yl)indolin-2-one] | 50 to 1000 nM
28 | NC(CNc1ncc(-c2ccc3cnccc3c2)s1)Cc1ccc(O)c(F)c1 (stereo not shown) [Example 218, 4-(2-Amino-3-(5-(isoquinolin-6-yl)thiazol-2-ylamino)propyl)-2-fluorophenol] | < 50 nM
29 | C[C@H](Nc1ncc(-c2ccc3c(c2)CC(=O)N3)s1)[C@@H](N)Cc1ccc(C(F)(F)F)cc1 [Example 234, 5-(2-((2S,3S)-3-amino-4-(4-(trifluoromethyl)phenyl)butan-2-ylamino)thiazol-5-yl)indolin-2-one] | 1000 to 10000 nM
30 | N[C@H](CNc1nc(-c2cccc(F)c2F)c(-c2ccc3cnccc3c2)s1)Cc1ccc(C(F)(F)F)cc1 [Example 100, N—((S)-2-Amino-3-(4-(trifluoromethyl)phenyl)propyl)-4-(2,3-difluorophenyl)-5-(isoquinolin-6-yl)thiazol-2-amine] | 50 to 1000 nM
31 | N[C@H](CNc1nc(COCC(F)(F)F)c(-c2nc3ccncc3s2)s1)Cc1cccc(Cl)c1 [Example 20, N—((S)-2-amino-3-(3-chlorophenyl)propyl)-5-(thiazolo[5,4-c]pyridin-2-yl)-4-((2,2,2-trifluoroethoxy)methyl)thiazol-2-amine] | 1000 to 10000 nM
32 | N[C@H](CNc1ncc(-c2ccc3cnccc3c2)s1)[C@@H](CO)c1ccc(C(F)(F)F)cc1 [Example 159, (2S,3S)-3-amino-4-(5-(isoquinolin-6-yl)thiazol-2-ylamino)-2-(4-(trifluoromethyl)phenyl)butan-1-ol] | < 50 nM
33 | N[C@H](CNc1nc(CO)c(-c2ccc3c(c2)CC(=O)N3)s1)Cc1ccc(C(F)(F)F)cc1 [Example 123, 5-(2-((S)-2-Amino-3-(4-(trifluoromethyl)phenyl)propylamino)-4-(hydroxymethyl)thiazol-5-yl)indolin-2-one] | < 50 nM
34 | N[C@H](CNc1ncc(-c2ccc3cnccc3c2)s1)Cc1ccc(Cl)s1 [Example 211, N—((S)-2-amino-3-(5-chlorothiophen-2-yl)propyl)-5-(isoquinolin-6-yl)thiazol-2-amine] | < 50 nM
